Source: patent US9796741B2 (Achillion Pharmaceuticals, Inc., priority 2014, dated 2017)

The molecules below were run against Human factor D (Homo sapiens (Human), UniProt P00746) (assay: Human Factor D Assay). Settings: not given.
Format: biochemical
Outline: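 Serum-purified factor D (80 nM final) preincubated 5 min at room temperature with compound in 50 mM Tris, 1M NaCl, pH 7.5. Z-L-Lys-SBzl and DTNB added at 100 μM each; OD405 followed kinetically over 30 min. IC50 by non-linear regression of % inhibition.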

Chain of Human factor D (P00746 26-253): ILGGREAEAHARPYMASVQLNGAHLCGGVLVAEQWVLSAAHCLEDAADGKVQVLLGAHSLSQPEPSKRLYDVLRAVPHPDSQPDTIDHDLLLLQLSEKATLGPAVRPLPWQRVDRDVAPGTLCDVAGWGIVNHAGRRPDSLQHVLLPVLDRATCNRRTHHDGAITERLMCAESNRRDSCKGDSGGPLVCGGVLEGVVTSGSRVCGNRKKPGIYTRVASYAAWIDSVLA

Question: With `NC(=O)c1nn(CC(=O)N2C[C@H](F)C[C@H]2C(=O)NCc2ccccn2)c2ccc(-c3ccnnc3)cc12` [Compound 139, 1-(2-((2S,4R)-4-fluoro-2-(pyridin-2-ylmethylcarbamoyl)pyrrolidin-1-yl)-2-oxoethyl)-5-(pyridazin-4-yl)-1H-indazole-3-carboxamide] as the molecule, how does the IC50 read?
Answer: 1 to 10 µM

Question: How did the IC50 turn out when `CC(=O)c1cn(CC(=O)N2C[C@H](F)C[C@H]2C(=O)NC2CCCN(c3cnn(C)c3)C2)c2ccc(-c3ccnnc3)cc12` (stereo partly drawn) [Compound 140, (2S,4R)-1-(2-(3-acetyl-5-(pyridazin-4-yl)-1H-indol-1-yl)acetyl)-4-fluoro-N-(1-(1-methyl-1H-pyrazol-4-yl)piperidin-3-yl)pyrrolidine-2-carboxamide] was run?
Answer: 1 to 10 µM

Same assay, conditions: human factor D 80 nM, substrate Z-L-Lys-SBzl, DTNB

Question: For `CC(=O)c1cn(CC(=O)N2[C@@H]3C[C@@H]3C[C@H]2C(=O)Nc2cccc(-c3ccccc3Cl)c2F)c2ccc(-c3cnc(C)nc3)cc12` [Compound 133, (1R,3S,5R)-2-(2-(3-acetyl-5-(2-methylpyrimidin-5-yl)-1H-indol-1-yl)acetyl)-N-(2′-chloro-2-fluorobiphenyl-3-yl)-2-azabicyclo[3.1.0] hexane-3-carboxamide], which IC50 is on record?
Answer: < 1 µM

Question: `CC(=O)c1cn(CC(=O)N2[C@@H]3C[C@@H]3C[C@H]2C(=O)NCc2cccc(Cl)c2F)c2ccc(-c3cnc(C)nc3)cc12` [Compound 134, (1R,3S,5R)-2-(2-(3-acetyl-5-(2-methylpyrimidin-5-yl)-1H-indol-1-yl)acetyl)-N-(3-chloro-2-fluorobenzyl)-2-azabicyclo[3.1.0] hexane-3-carboxamide] was tested. Which IC50 did it give?
Answer: < 1 µM

Question: For `CC(=O)c1cn(CC(=O)N2C[C@H](F)C[C@H]2C(=O)NCc2cccc(Cl)c2F)c2ccc(-c3cnc(C)nc3)cc12` [Compound 135, (2S,4R)-1-(2-(3-acetyl-5-(2-methylpyrimidin-5-yl)-1H-indol-1-yl)acetyl)-N-(3-chloro-2-fluorobenzyl)-4-fluoropyrrolidine-2-carboxamide], which IC50 is on record?
Answer: < 1 µM

Question: For `COc1ncc(-c2ccc3c(c2)c(C(C)=O)cn3CC(=O)N2C[C@H](F)C[C@H]2C(=O)NCc2cccc(Cl)c2F)cn1` [Compound 136, (2S,4R)-1-(2-(3-acetyl-5-(2-methoxypyrimidin-5-yl)-1H-indol-1-yl)acetyl)-N-(3-chloro-2-fluorobenzyl)-4-fluoropyrrolidine-2-carboxamide], which IC50 is on record?
Answer: < 1 µM

Question: `CC(=O)c1cn(CC(=O)N2C[C@H](F)C[C@H]2C(=O)Nc2cccc(Cl)n2)c2ccc(-c3cnc(C)nc3)cc12` [Compound 137, (2S,4R)-1-(2-(3-acetyl-5-(2-methylpyrimidin-5-yl)-1H-indol-1-yl)acetyl)-N-(6-chloropyridin-2-yl)-4-fluoropyrrolidine-2-carboxamide] was tested. Which IC50 did it give?
Answer: < 1 µM

Question: How did the IC50 turn out when `CC(=O)Nc1ncc(-c2ccc3c(c2)c(C(C)=O)cn3CC(=O)N2C[C@H](F)C[C@H]2C(=O)Nc2cccc(-c3ccccc3Cl)c2F)cn1` [Compound 138, (2S,4R)-1-(2-(5-(2-acetamidopyrimidin-5-yl)-3-acetyl-1H-indol-1-yl)acetyl)-N-(2′-chloro-2-fluorobiphenyl-3-yl)-4-fluoropyrrolidine-2-carboxamide] was run?
Answer: < 1 µM

Question: `Cn1cc(N2CCCC(NC(=O)[C@@H]3C[C@@H](F)CN3C(=O)Cn3nc(C(N)=O)c4cc(-c5ccnnc5)ccc43)C2)cn1` (stereo partly drawn) [Compound 141, 1-(2-((2S,4R)-4-fluoro-2-(1-(1-methyl-1H-pyrazol-4-yl)piperidin-3-ylcarbamoyl)pyrrolidin-1-yl)-2-oxoethyl)-5-(pyridazin-4-yl)-1H-indazole-3-carboxamide] was tested. Which IC50 did it give?
Answer: > 10 µM

Question: With `CC(=O)c1cn(CC(=O)N2C[C@H](F)C[C@H]2C(=O)N[C@@H]2CCC[C@H]2O)c2ccc(-c3ccnnc3)cc12` [Compound 143, (2S,4R)-1-(2-(3-acetyl-5-(pyridazin-4-yl)-1H-indol-1-yl)acetyl)-4-fluoro-N-((1R,2R)-2-hydroxycyclopentyl) pyrrolidine-2-carboxamide] as the molecule, how does the IC50 read?
Answer: > 10 µM

Question: `CC(=O)c1cn(CC(=O)N2C[C@H](F)C[C@H]2C(=O)Nc2cccc(O)n2)c2ccc(-c3ccnnc3)cc12` [Compound 144, (2S,4R)-1-(2-(3-acetyl-5-(pyridazin-4-yl)-1H-indol-1-yl)acetyl)-4-fluoro-N-(6-hydroxypyridin-2-yl)pyrrolidine-2-carboxamide] was tested. Which IC50 did it give?
Answer: > 10 µM

Question: `NC(=O)c1nn(CC(=O)N2C[C@H](F)C[C@H]2C(=O)N[C@@H]2CCC[C@H]2O)c2ccc(-c3ccnnc3)cc12` [Compound 145, 1-(2-((2S,4R)-4-fluoro-2-((1R,2R)-2-hydroxycyclopentyl-carbamoyl)pyrrolidin-1-yl)-2-oxoethyl)-5-(pyridazin-4-yl)-1H-indazole-3-carboxamide] was tested. Which IC50 did it give?
Answer: > 10 µM

Question: For `NC(=O)c1nn(CC(=O)N2C[C@H](F)C[C@H]2C(=O)Nc2nc(-c3cccc(Cl)c3)ns2)c2ccc(-c3ccnnc3)cc12` [Compound 146, 1-(2-((2S,4R)-2-(3-(3-chlorophenyl)-1,2,4-thiadiazol-5-ylcarbamoyl)-4-fluoropyrrolidin-l-yl)-2-oxoethyl)-5-(pyridazin-4-yl)-1H-indazole-3-carboxamide], which IC50 is on record?
Answer: > 10 µM

Question: For `CC(=O)c1cn(CC(=O)N2C[C@H](F)C[C@H]2C(=O)Nc2nc(-c3cccc(Cl)c3)ns2)c2ccc(-c3ccnnc3)cc12` [Compound 147, (2S,4R)-1-(2-(3-acetyl-5-(pyridazin-4-yl)-1H-indol-1-yl)acetyl)-N-(3-(3-chlorophenyl)-1,2,4-thiadiazol-5-yl)-4-fluoropyrrolidine-2-carboxamide], which IC50 is on record?
Answer: > 10 µM

Question: Which IC50 does the source give for `CC(=O)c1cn(CC(=O)N2C[C@H](F)C[C@H]2C(=O)Nc2cccc(-c3cc(F)c(F)cc3Cl)c2F)c2ccc(-c3cnc(C)nc3)cc12` [Compound 150, (2S,4R)-1-(2-(3-acetyl-5-(2-methylpyrimidin-5-yl)-1H-indol-1-yl)acetyl)-N-(2′-chloro-2,4′,5′-trifluorobiphenyl-3-yl)-4-fluoropyrrolidine-2-carboxamide] here?
Answer: < 1 µM

Question: `CC(=O)c1cn(CC(=O)N2C[C@H](F)C[C@H]2C(=O)Nc2cccc(-c3ccccc3Cl)c2F)c2ccc(-c3ccc(C)nc3)cc12` [Compound 151, (2S,4R)-1-(2-(3-acetyl-5-(6-methylpyridin-3-yl)-1H-indol-1-yl)acetyl)-N-(2′-chloro-2-fluorobiphenyl-3-yl)-4-fluoropyrrolidine-2-carboxamide] was tested. Which IC50 did it give?
Answer: < 1 µM

Question: Which IC50 does the source give for `CC1Oc2cccc(NC(=O)[C@@H]3C[C@@H](F)CN3C(=O)Cn3nc(C(N)=O)c4cc(-c5ccnnc5)ccc43)c2NC1=O` (stereo partly drawn) [Compound 152, 1-(2-((2S,4R)-4-fluoro-2-(2-methyl-3-oxo-3,4-dihydro-2H-benzo[b][1,4]oxazin-5-ylcarbamoyl)pyrrolidin-1-yl)-2-oxoethyl)-5-(pyridazin-4-yl)-1H-indazole-3-carboxamide] here?
Answer: > 10 µM

Question: `CC(=O)c1cn(CC(=O)N2C[C@H](F)C[C@H]2C(=O)Nc2cccc3c2NC(=O)C(C)O3)c2ccc(-c3ccnnc3)cc12` (stereo partly drawn) [Compound 153, (2S,4R)-1-(2-(3-acetyl-5-(pyridazin-4-yl)-1H-indol-1-yl)acetyl)-4-fluoro-N-(2-methyl-3-oxo-3,4-dihydro-2H-benzo[b][1,4]oxazin-5-yl)pyrrolidine-2-carboxamide] was tested. Which IC50 did it give?
Answer: > 10 µM

Question: `NC(=O)c1nn(CC(=O)N2C[C@H](F)C[C@H]2C(=O)Nc2cc(O)ccn2)c2ccc(-c3ccnnc3)cc12` [Compound 154, 1-(2-((2S,4R)-4-fluoro-2-(4-hydroxypyridin-2-ylcarbamoyl)pyrrolidin-l-yl)-2-oxoethyl)-5-(pyridazin-4-yl)-1H-indazole-3-carboxamide] was tested. Which IC50 did it give?
Answer: > 10 µM

Question: With `Cn1ccc(N2CCC(NC(=O)[C@@H]3C[C@@H](F)CN3C(=O)Cn3nc(C(N)=O)c4cc(-c5ccnnc5)ccc43)C2=O)n1` (stereo partly drawn) [Compound 155, 1-(2-((2S,4R)-4-fluoro-2-(1-(1-methyl-1H-pyrazol-3-yl)-2-oxopyrrolidin-3-ylcarbamoyl)pyrrolidin-1-yl)-2-oxoethyl)-5-(pyridazin-4-yl)-1H-indazole-3-carboxamide] as the molecule, how does the IC50 read?
Answer: > 10 µM

Question: How did the IC50 turn out when `CC(=O)c1cn(CC(=O)N2C[C@H](F)C[C@H]2C(=O)Nc2c[nH]nc2-c2ccc(Cl)cc2Cl)c2ccc(-c3ccnnc3)cc12` [Compound 156, (2S,4R)-1-(2-(3-acetyl-5-(pyridazin-4-yl)-1H-indol-1-yl)acetyl)-N-(3-(2,4-dichlorophenyl)-1H-pyrazol-4-yl)-4-fluoropyrrolidine-2-carboxamide] was run?
Answer: > 10 µM

Question: How did the IC50 turn out when `NC(=O)c1nn(CC(=O)N2C[C@H](F)C[C@H]2C(=O)NCc2ccncc2)c2ccc(-c3ccnnc3)cc12` [Compound 157, 1-(2-((2S,4R)-4-fluoro-2-(pyridin-4-ylmethylcarbamoyl)pyrrolidin-1-yl)-2-oxoethyl)-5-(pyridazin-4-yl)-1H-indazole-3-carboxamide] was run?
Answer: > 10 µM

Question: For `Cc1cc(NC(=O)[C@@H]2C[C@@H](F)CN2C(=O)Cn2nc(C(N)=O)c3cc(-c4ccnnc4)ccc32)n(-c2ccccc2F)n1` [Compound 158, 1-(2-((2S,4R)-4-fluoro-2-(1-(2-fluorophenyl)-3-methyl-1H-pyrazol-5-ylcarbamoyl)pyrrolidin-1-yl)-2-oxoethyl)-5-(pyridazin-4-yl)-1H-indazole-3-carboxamide], which IC50 is on record?
Answer: > 10 µM

Question: For `CC(=O)c1cn(CC(=O)N2C[C@@H](F)C[C@@H]2C(=O)NC2CCCN(c3ccccc3Cl)C2=O)c2ccc(-c3ccnnc3)cc12` (stereo partly drawn) [Compound 161, (2R,4S)-1-(2-(3-acetyl-5-(pyridazin-4-yl)-1H-indol-1-yl)acetyl)-N-(1-(2-chlorophenyl)-2-oxopiperidin-3-yl)-4-fluoropyrrolidine-2-carboxamide], which IC50 is on record?
Answer: < 1 µM

Question: Which IC50 does the source give for `CC(=O)c1nn(CC(=O)N2C[C@H](F)C[C@H]2C(=O)Nc2cccc(-c3ccccc3Cl)c2F)c2ccc(-c3cnc(C)nc3)cc12` [Compound 163, (2S,4R)-1-(2-(3-acetyl-5-(2-methylpyrimidin-5-yl)-1H-indazol-1-yl)acetyl)-N-(2′-chloro-2-fluorobiphenyl-3-yl)-4-fluoropyrrolidine-2-carboxamide] here?
Answer: < 1 µM
